As usually defined, the inhibition is the relative decrease from the control value, in per cent. A lower inhibition goes with a response near the control. In general, IC50 refers to the concentration that gives 50% inhibition.

This note sets out measurements from ChEMBL document CHEMBL3045842, “Antioxidant and -glucosidase inhibitory compounds from Pimpinella candolleana Wight et Arn” (Med Chem Res, 2012).

SMILES strings stand for the structures. ≈ marks a conversion by molar mass, not a printed value.

The target in test [1] is Lysosomal alpha-glucosidase (Homo sapiens) (UniProt P10253). Kind of test: Inhibition of alpha-glucosidase (unknown origin) using para-nitrophenyl-alpha-D-glucopyranoside as substrate incubated at 50 to 300 ug/ml for 15 min prior to substrate addition measured after 15 min by spectrophotometric analysis.
A short description of test [2]: Antioxidant activity assessed as trolox equivalents of ferric reducing activity after 30 min by spectrophotometry. The format is functional.
A short description of test [3]: Antioxidant activity assessed as ABTS radical scavenging activity after 10 min by spectrophotometry. Type of test: functional.
In test [4] the test system is Radical scavenging activity. Description: Antioxidant activity assessed as as DPPH radical scavenging activity after 30 min by spectrophotometry. Type of test: functional. On the technique in general: The DPPH test is a chemical assay of radical scavenging.

In test [1], `CC[C@H](/C=C/[C@@H](C)[C@H]1CC[C@H]2[C@@H]3CC=C4CC(OC(C)=O)CC[C@]4(C)[C@H]3CC[C@]12C)C(C)C` (stereo not given in full) gave an inhibition of 99.1%.
Consider `C[C@H]1O[C@H](O[C@H]2[C@H](O)[C@@H](O)[C@@H](O[C@H]3[C@H](O)[C@@H](O)C(O)O[C@@H]3CO)O[C@@H]2CO)[C@H](O)[C@@H](O)[C@@H]1N[C@H]1C=C(CO)[C@@H](O)[C@H](O)[C@H]1O` (stereo not given in full), for which the inhibition in test [1] was found to be 55.6%.
Still for that read-out and setting: the same measure for `C[C@H]1[C@H](C)CC[C@]2(C(=O)O)CC[C@]3(C)C(=CC[C@@H]4[C@@]5(C)CC[C@H](O)C(C)(C)[C@@H]5CC[C@]43C)[C@H]12`: 97.6%; for `O=c1cc(-c2ccc(O)cc2)oc2cc(O)c([C@@H]3O[C@H](CO)[C@@H](O)[C@H](O)[C@H]3O)c(O)c12`: 76.8%.
`Cc1cc(C(C)(C)C)c(O)c(C(C)(C)C)c1` [BUTYLATED HYDROXYTOLUENE]: the Activity in test [2] turned out to be 1580 µmol/g. The concentration for half-maximal inhibition (IC50) amounted to 6.64 µg/mL (≈ 30.1 µM) in test [3] and 18.71 µg/mL (≈ 84.9 µM) in test [4].
Turning to `O=c1cc(-c2ccc(O)c(O)c2)oc2cc(O)cc(O)c12` [LUTEOLIN], in test [1], the inhibition stood at 99.9%. The IC50 in test [4] is 0.99 µg/mL (≈ 3.46 µM).
With `CCCOC(=O)c1cc(O)c(O)c(O)c1` [PROPYL GALLATE], the half-maximal inhibitory concentration (IC50) in test [4] worked out at 3.96 µg/mL (≈ 18.7 µM).
